The source of these data is patent US10647713B2 (Nimbus Lakshmi, Inc., priority 2016, dated 2020).

human TYK2 (JH2domain-pseudokinase), sequence (P29597 556-888): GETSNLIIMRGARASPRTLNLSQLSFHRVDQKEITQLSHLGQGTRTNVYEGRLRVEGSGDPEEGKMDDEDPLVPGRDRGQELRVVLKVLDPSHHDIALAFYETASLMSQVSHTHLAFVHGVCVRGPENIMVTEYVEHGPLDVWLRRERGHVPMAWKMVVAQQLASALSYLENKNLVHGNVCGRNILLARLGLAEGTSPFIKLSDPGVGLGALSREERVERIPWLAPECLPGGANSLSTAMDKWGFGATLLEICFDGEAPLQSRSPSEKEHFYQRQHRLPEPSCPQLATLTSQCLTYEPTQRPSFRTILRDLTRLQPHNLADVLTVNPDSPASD

The assay concerns the target human TYK2 (JH2domain-pseudokinase) (Homo sapiens (Human), UniProt P29597). Nature of the assay: TYK2 JH2 Domain Binding Assay (KINOMEscan, DiscoveRx). To be noted: 11-point dilution, duplicate. Put shortly: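 Kd from duplicate 11-point 3-fold dilutions starting at 30,000 nM, fitted by Hill equation with slope fixed at −1. Compounds (final 0.9% DMSO) displace DNA-tagged HEK293-expressed TYK2 JH2 fusion (<0.1 nM) from ligand-coated beads over 1 h at room temperature; eluted kinase read by qPCR.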
The term Kd denotes the equilibrium constant for the complex coming apart. Regarding `CS(=O)(=O)c1cc(Cl)ccc1Nc1cc(NC(=O)C2CC2)nc2[nH]c(C(F)F)nc12` [I-58, N-(7-((4-chloro-2-(methylsulfonyl)phenyl)amino)-2-(difluoromethyl)-3H-imidazo[4,5-b]pyridin-5-yl)cyclopropanecarboxamide], the Kd lay in the range of 0.5 to 1 nM. On to `Cc1ncc(Nc2cc(Nc3ccccc3N(C)S(C)(=O)=O)c3nc(C(F)F)[nH]c3n2)nc1C` [I-59, N-(2-((2-(difluoromethyl)-5-((5,6-dimethylpyrazin-2-yl)amino)-3H-imidazo[4,5-b]pyridin-7-yl)amino)phenyl)-N-methylmethanesulfonamide], for which the equilibrium dissociation constant (Kd) was in the range of 0.1 to 0.5 nM. As for `Cc1ccc(Nc2cc(Nc3ccccc3N(C)S(C)(=O)=O)c3nc(C(F)F)[nH]c3n2)nc1C#N` [I-60, N-(2-((5-((6-cyano-5-methylpyridin-2-yl)amino)-2-(difluoromethyl)-3H-imidazo[4,5-b]pyridin-7-yl)amino)phenyl)-N-methylmethanesulfonamides], the figure is below 0.1 nM; as for `Cn1ccc(-c2ccc(Nc3cc(NC(=O)C4CC4)nc4[nH]c(C(F)F)nc34)c(S(C)(=O)=O)c2)n1` [I-61, N-(2-(difluoromethyl)-7-((4-(1-methyl-1H-pyrazol-3-yl)-2-(methylsulfonyl)phenyl)amino)-3H-imidazo[4,5-b]pyridin-5-yl)cyclopropanecarboxamide], 0.1 to 0.5 nM.

For `Cn1cnc(-c2ccc(Nc3cc(NC(=O)C4CC4)nc4[nH]c(C(F)F)nc34)c(S(C)(=O)=O)c2)c1` [I-62, N-(2-(difluoromethyl)-7-((4-(1-methyl-1H-imidazol-4-yl)-2-(methylsulfonyl)phenyl)amino)-3H-imidazo[4,5-b]pyridin-5-yl)cyclopropanecarboxamide], the Kd is 0.1 to 0.5 nM. The figure for `Cc1ccn(-c2ccc(Nc3cc(NC(=O)C4CC4)nc4[nH]c(C(F)F)nc34)c(S(C)(=O)=O)c2)n1` [I-63, N-(2-(difluoromethyl)-7-((4-(3-methyl-1H-pyrazol-1-yl)-2-(methylsulfonyl)phenyl)amino)-3H-imidazo[4,5-b]pyridin-5-yl)cyclopropanecarboxamide] is 0.5 to 1 nM. As for `CN(c1cc(-c2cn(C)cn2)ccc1Nc1cc(NC(=O)C2CC2)nc2[nH]c(C(F)F)nc12)S(C)(=O)=O` [I-64, N-(2-(difluoromethyl)-7-((4-(1-methyl-1H-imidazol-4-yl)-2-(N-methylmethylsulfonamido)phenyl)amino)-3H-imidazo[4,5-b]pyridin-5-yl)cyclopropanecarboxamide], the figure is 0.1 to 0.5 nM; as for `CN(c1cc(-c2cnn(C)c2)ccc1Nc1cc(NC(=O)C2CC2)nc2[nH]c(C(F)F)nc12)S(C)(=O)=O` [I-65, N-(2-(difluoromethyl)-7-((4-(1-methyl-1H-pyrazol-4-yl)-2-(N-methylmethylsulfonamido)phenyl)amino)-3H-imidazo[4,5-b]pyridin-5-yl)cyclopropanecarboxamide], 0.1 to 0.5 nM; as for `COc1c(Nc2cc(Nc3cnc(C(C)(C)OC)c(C#N)n3)nc3[nH]c(C(F)F)nc23)cccc1-c1nnn(C)n1` [I-80, 6-((2-(difluoromethyl)-7-((2-methoxy-3-(2-methyl-2H-tetrazol-5-yl)phenyl)amino)-3H-imidazo[4,5-b]pyridin-5-yl)amino)-3-(2-methoxypropan-2-yl)pyrazine-2-carbonitrile], 1 to 10 nM.

`CS(=O)(=O)c1cc(F)ccc1Nc1cc(NC(=O)C2CC2)nc2[nH]c(C(F)F)nc12` [I-85, N-(2-(difluoromethyl)-7-((4-fluoro-2-(methylsulfonyl)phenyl)amino)-3H-imidazo[4,5-b]pyridin-5-yl)cyclopropanecarboxamide] had a dissociation constant (Kd) of 0.5 to 1 nM.

Take `CN(c1ccccc1Nc1cc(Nc2cccc(C(F)(F)F)n2)nc2[nH]c(C(F)F)nc12)S(C)(=O)=O` [I-87, N-(2-((2-(difluoromethyl)-5-((6-(trifluoromethyl)pyridin-2-yl)amino)-3H-imidazo[4,5-b]pyridin-7-yl)amino)phenyl)-N-methylmethanesulfonamide]: the Kd is 0.5 to 1 nM. The compound `CN(c1cc(N2CCC2)ccc1Nc1cc(NC(=O)C2CC2)nc2[nH]c(C(F)F)nc12)S(C)(=O)=O` [I-89, N-(7-((4-(azetidin-1-yl)-2-(N-methylmethylsulfonamido)phenyl)amino)-2-(difluoromethyl)-3H-imidazo[4,5-b]pyridin-5-yl)cyclopropanecarboxamide] had a Kd of 0.5 to 1 nM. On to `Cc1ncc(Nc2cc(Nc3ccc(Cl)cc3N(C)S(C)(=O)=O)c3nc(C(F)F)[nH]c3n2)nc1C` [I-93, N-(5-chloro-2-((2-(difluoromethyl)-5-((5,6-dimethylpyrazin-2-yl)amino)-3H-imidazo[4,5-b]pyridin-7-yl)amino)phenyl)-N-methylmethanesulfonamide], for which the Kd was in the range of 0.1 to 0.5 nM. As for `CN(c1cc(Cl)ccc1Nc1cc(Nc2cccc(C#N)n2)nc2[nH]c(C(F)F)nc12)S(C)(=O)=O` [I-94, N-(5-chloro-2-((5-((6-cyanopyridin-2-yl)amino)-2-(difluoromethyl)-3H-imidazo[4,5-b]pyridin-7-yl)amino)phenyl)-N-methylmethanesulfonamide], the figure is 0.5 to 1 nM; as for `Cc1ccc(Nc2cc(NC(=O)C3CC3)nc3[nH]c(C(F)F)nc23)c(N(C)S(C)(=O)=O)c1` [I-95, N-(2-(difluoromethyl)-7-((4-methyl-2-(N-methylmethylsulfonamido)phenyl)amino)-3H-imidazo[4,5-b]pyridin-5-yl)cyclopropanecarboxamide], 0.1 to 0.5 nM; as for `COCc1ccc(Nc2cc(NC(=O)C3CC3)nc3[nH]c(C(F)F)nc23)c(N(C)S(C)(=O)=O)c1` [I-96, N-(2-(difluoromethyl)-7-((4-(methoxymethyl)-2-(N-methylmethylsulfonamido)phenyl)amino)-3H-imidazo[4,5-b]pyridin-5-yl)cyclopropanecarboxamide], 0.1 to 0.5 nM.

As for `Cc1ccc(Nc2cc(Nc3cnc(C)c(C)n3)nc3[nH]c(C(F)F)nc23)c(N(C)S(C)(=O)=O)c1` [I-97, N-(2-((2-(difluoromethyl)-5-((5,6-dimethylpyrazin-2-yl)amino)-3H-imidazo[4,5-b]pyridin-7-yl)amino)-5-methylphenyl)-N-methylmethanesulfonamide], the dissociation constant Kd was above 10 nM. In the case of `COc1c(Nc2cc(NC(=O)C3CC3)nc3[nH]c(C)nc23)cccc1-c1nnn(C)n1` [I-98, N-(7-((2-methoxy-3-(2-methyl-2H-tetrazol-5-yl)phenyl)amino)-2-methyl-3H-imidazo[4,5-b]pyridin-5-yl)cyclopropanecarboxamide], the Kd lay within 0.5 to 1 nM. The figure for `COc1c(Nc2cc(Nc3ccc(C)nn3)nc3[nH]c(C)nc23)cccc1-c1nnn(C)n1` [I-100, N-7-(2-methoxy-3-(2-methyl-2H-tetrazol-5-yl)phenyl)-2-methyl-N5-(6-methylpyridazin-3-yl)-3H-imidazo[4,5-b]pyridine-5,7-diamine] is 0.1 to 0.5 nM; for `COc1c(Nc2cc(Nc3ccc(C)cn3)nc3[nH]c(C)nc23)cccc1-c1nnn(C)n1` [I-101, N7-(2-methoxy-3-(2-methyl-2H-tetrazol-5-yl)phenyl)-2-methyl-N5-(5-methylpyridin-2-yl)-3H-imidazo[4,5-b]pyridine-5,7-diamine] it is 1 to 10 nM; for `COc1c(Cl)cccc1Nc1cc(NC(=O)C2CC2)nc2[nH]c(C)nc12` [I-103, N-(7-((3-chloro-2-methoxyphenyl)amino)-2-methyl-3H-imidazo[4,5-b]pyridin-5-yl)cyclopropanecarboxamide] it is above 10 nM. As to `COc1c(F)cccc1Nc1cc(NC(=O)C2CC2)nc2[nH]c(C)nc12` [I-104, N-(7-((3-fluoro-2-methoxyphenyl)amino)-2-methyl-3H-imidazo[4,5-b]pyridin-5-yl)cyclopropanecarboxamide], the dissociation constant Kd is above 10 nM. The figure for `COc1c(C#N)cccc1Nc1cc(NC(=O)C2CC2)nc2[nH]c(C)nc12` [I-105, N-(7-((3-cyano-2-methoxyphenyl)amino)-2-methyl-3H-imidazo[4,5-b]pyridin-5-yl)cyclopropanecarboxamide] is above 10 nM.

For the compound `COc1ccccc1Nc1cc(NC(=O)C2CC2)nc2[nH]c(C)nc12` [I-106, N-(7-((2-methoxyphenyl)amino)-2-methyl-3H-imidazo[4,5-b]pyridin-5-yl)cyclopropanecarboxamide], the Kd is above 10 nM. `COc1c(Nc2cc(NC(=O)C3CC3)nc3[nH]c(C)nc23)cccc1-c1cnn(C)c1` [I-107, N-(7-((2-methoxy-3-(1-methyl-1H-pyrazol-4-yl)phenyl)amino)-2-methyl-3H-imidazo[4,5-b]pyridin-5-yl)cyclopropanecarboxamide] returned a dissociation constant Kd of 1 to 10 nM.

`COc1c(Nc2cc(Nc3ccc(C(=O)N4CCCC4)c(C(F)(F)F)n3)nc3[nH]c(C)nc23)cccc1-c1nnn(C)n1` [I-108, (6-((7-((2-methoxy-3-(2-methyl-2H-tetrazol-5-yl)phenyl)amino)-2-methyl-3H-imidazo[4,5-b]pyridin-5-yl)amino)-2-(trifluoromethyl)pyridin-3-yl)(pyrrolidin-1-yl)methanone] came in with a Kd of 0.1 to 0.5 nM.

`COc1c(Nc2cc(Nc3ccc(N4CCCC4=O)c(C#N)n3)nc3[nH]c(C)nc23)cccc1-c1nnn(C)n1` [I-109, 6-((7-((2-methoxy-3-(2-methyl-2H-tetrazol-5-yl)phenyl)amino)-2-methyl-3H-imidazo[4,5-b]pyridin-5-yl)amino)-3-(2-oxopyrrolidin-1-yl)picolinonitrile] yielded a Kd of 0.1 to 0.5 nM.

In turn, `COc1cc(C(=O)N2CCCC2)ccc1Nc1cc(NC(=O)C2CC2)nc2[nH]c(C)nc12` [I-110, N-(7-((2-methoxy-4-(pyrrolidine-1-carbonyl)phenyl)amino)-2-methyl-3H-imidazo[4,5-b]pyridin-5-yl)cyclopropanecarboxamide] showed a Kd of 1 to 10 nM. The figure for `COc1c(Nc2cc(Nc3cnc(C)c(C#N)n3)nc3[nH]c(C)nc23)cccc1-c1nnn(C)n1` [I-111, 6-((7-((2-methoxy-3-(2-methyl-2H-tetrazol-5-yl)phenyl)amino)-2-methyl-3H-imidazo[4,5-b]pyridin-5-yl)amino)-3-methylpyrazine-2-carbonitrile] is 1 to 10 nM.
